# Test results as given in US11034672B1, “Tyrosine kinase inhibitor compositions, methods of making and methods of use” (Black Diamond Therapeutics, Inc., priority 2018, dated 2021).
# Key:
# HER2 S310F = experiment: Tumor pHER2/pERK AlphaLisa in mice bearing HER2 S310F BaF3 tumors (Examples 15-18); format: in vivo; settings: two day acute oral dosing, 15 mg/kg; at peak plasma levels
# Method: (§1) Following the second dose, tumors were collected at 2 hours, 5 hours, 12 hours and 24 hours, and analyzed for both pHER2 activity and pERK activity via AlphaLisa. Plasma was also collected at these time points and analayzed for the presence of Compound No. 21 to determine pharmacokinetic profile. The tumor tissue was cut and homogenized using the Precellys Soft Tissue Homogenizing kit (KT03961-1-00.3.2) containing T-PER tissue protein extraction reagent (Thermo Scientific #78510), supplemented with Protease Inhibitor (Sigma P8340), and Phosphatase Inhibitors II and III (Sigma P5726 and P0044). Tissue samples were homogenized in the Precellys machine by spinning two times for one minute each. Sample tubes were centrifuged for 5 min at 15,000 rpm at 4° C. The supernatant was transferred to a fresh microtube and spun again for 5 minutes at 15,000 rpm at 4° C. Supernatant was then transferred to a fresh microtube and placed on ice. The protein concentration of the supernatant was measured using the BCA reagent Kit (Thermo Scientific #23225). Tumor tissue-derived lysates were analyzed for either HER2 activity or EGFR activity by detection of pHER2 (Tyr1221/1222) or pERK (Thr202/Tyr204) phosphosites, respectively, via AlphaLisa. Briefly, tumor Lysates were diluted to 0.5 ug/ul in 1× diluted SureFire Ultra Kit Lysis Buffer (5× supplied stock) supplemented with Protease Inhibitor (Sigma P8340) and Phosphatase Inhibitor II and III (Sigma P5726 and P0044). 10 ul of total tumor lysate was added per well in triplicate to a 384-well Opti-plate (Perkin Elmer #6007290). Activation Buffer was diluted 25-fold in combined Reaction Buffer 1 and Reaction Buffer 2, and acceptor beads were diluted 50-fold in the combined Reaction Buffers. 5 ul/well of the Acceptor bead:Reaction buffer mixture was added to each well.
# as §1, with “No. 5” for “No. 21”, “Buffer (X” for “Buffer (5×”
# To determine the ability of Compound No. 118 to inhibit tumor growth and induce tumor regression in vivo, a mouse tumor model containing the HER2 S310F mutation was used. Athymic nude mice from Charles River Labs bearing HER2 S310F BaF3 tumors were treated with two day acute oral dosing of Compound No. 118 at 15 mg/kg. […]
# [1] = biological target: T1, EGFR-Exon 20 insertion SVD (EGFR-SVD) (Homo sapiens, UniProt P00533, DUP768-770); experiment: BaF3 panel Cell Titer Glo proliferation, EGFR-SVD (Example 3); format: cell-based; settings: BaF3 transformant, 72 hours, FIG. 21
# T1 construct: expressed in transfected cells; host or cells: BaF3 (murine pro-B), retroviral pMXs-IRES-Blasticidin
# Method: To determine the ability of Compound No. 6 to target wild type HER2, wild type EGFR, and relevant mutants of each, a panel of BaF3 cell lines and the A431 cell line were dosed and assessed in cell proliferation assays. The BaF3 parental cell line is normally dependent on IL-3 for proliferation, but when transformed with active tyrosine kinase can grow in the absence of IL-3. However, when transformed kinase activity is inhibited by a targeted small molecule the associated proliferation is reduced in proportion to the extent of inhibition. A panel of BaF3 cell lines were generated by transforming the parental BaF3 cell line with wild type HER2 (HER2-WT), HER2 S310F (HER2-S310F), HER2 Exon 20 insertion YVMA (HER2-YVMA), EGFR-Exon 20 insertion ASV (EGFR-ASV), EGFR-Exon 20 insertion SVD (EGFR-SVD), or EGFR-Exon 20 insertion NPH (EGFR-NPH). The A431 […] cell line, which natively expresses WT-EGFR, was used to assess WT-EGFR inhibition. […] Proliferation was assessed using the Cell Titer Glo cell proliferation kit (Promega # G7573). […] Cell Titer Glo was added to plated cells at 15 ul per well, the plate was shaken for 20 minutes at room temperature, and luminescence was measured using Victor X3 Multimode plate reader (Perkin Elmer), Cell Titer Glo readings were taken following 72 hours (T72) after addition of Compound No. 6. […]
# T1 sequence (P00533 with tags, fused parts or gaps DUP768-770): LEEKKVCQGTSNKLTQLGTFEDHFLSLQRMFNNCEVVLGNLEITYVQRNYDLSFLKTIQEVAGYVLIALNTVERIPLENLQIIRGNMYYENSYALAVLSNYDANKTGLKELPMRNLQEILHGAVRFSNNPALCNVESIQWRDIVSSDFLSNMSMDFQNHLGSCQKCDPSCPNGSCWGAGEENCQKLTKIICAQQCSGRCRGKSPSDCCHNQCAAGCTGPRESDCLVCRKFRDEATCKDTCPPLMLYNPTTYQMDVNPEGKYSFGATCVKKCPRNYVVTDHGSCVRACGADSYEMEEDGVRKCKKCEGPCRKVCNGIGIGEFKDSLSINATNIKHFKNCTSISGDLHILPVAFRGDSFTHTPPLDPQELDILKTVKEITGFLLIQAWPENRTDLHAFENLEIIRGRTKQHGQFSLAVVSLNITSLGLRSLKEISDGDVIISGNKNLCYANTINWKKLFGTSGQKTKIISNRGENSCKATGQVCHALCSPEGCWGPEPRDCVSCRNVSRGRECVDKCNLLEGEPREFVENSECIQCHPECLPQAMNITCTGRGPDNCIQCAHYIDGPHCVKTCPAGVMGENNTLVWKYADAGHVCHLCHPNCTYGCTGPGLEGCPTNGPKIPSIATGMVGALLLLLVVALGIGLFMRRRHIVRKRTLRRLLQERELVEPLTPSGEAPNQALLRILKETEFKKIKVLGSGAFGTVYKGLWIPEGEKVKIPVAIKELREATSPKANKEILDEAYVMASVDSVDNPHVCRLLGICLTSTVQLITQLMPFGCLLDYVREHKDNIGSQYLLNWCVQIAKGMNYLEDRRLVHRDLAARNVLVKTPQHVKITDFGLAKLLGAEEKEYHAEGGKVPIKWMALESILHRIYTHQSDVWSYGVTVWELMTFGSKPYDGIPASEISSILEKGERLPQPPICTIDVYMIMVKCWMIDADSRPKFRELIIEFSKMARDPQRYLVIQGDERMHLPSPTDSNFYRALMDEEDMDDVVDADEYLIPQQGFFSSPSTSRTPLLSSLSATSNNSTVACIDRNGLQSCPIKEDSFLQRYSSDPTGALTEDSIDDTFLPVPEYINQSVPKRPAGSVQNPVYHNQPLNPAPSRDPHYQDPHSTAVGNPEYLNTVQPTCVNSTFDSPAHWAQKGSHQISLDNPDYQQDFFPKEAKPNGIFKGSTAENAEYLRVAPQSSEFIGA
IC50 [1] [nM],Compound,pERK1/2 (Thr202/Tyr204) in tumors (HER2 S310F),pHER2 (Tyr1221/1222) in tumors (HER2 S310F)
,CC#CC(=O)Nc1cc2c(Nc3ccc(OCc4ccccn4)c(Cl)c3)ncnc2cc1OCCN1CCOCC1 [compound 5],reduction,reduction
< 100,C=CC(=O)Nc1cc2c(Nc3cc(Cl)c(OCc4cccc(F)c4)cc3F)ncnc2cc1OCCN1CCOCC1 [compound 6],,
,C=CC(=O)Nc1cc2c(Nc3ccc(OCc4ccccn4)c(Cl)c3)ncnc2cc1OCCCN1CCOCC1 [compound 21],near complete reduction,near complete reduction
